Where a name gives a salt, the structure may show the parent alone. ± gives the standard deviation of the averaged measurements.
Test system: A204
Experiment: relative viability vs DMSO control (72 h) (fraction); higher = more viable cells
How it was run: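 A 5 µM positive control and 0.1% DMSO vehicle ran alongside sarcoma cell lines seeded in 384-well plates to reach 80–90% confluence. Serially diluted compound, 2.5 µl from source plates of 10 mM to 0.0002 mM, was added after 24 h, and the plates were held 72 h at 37 °C, 5% CO2. Relative viability was worked out from ATPLite readings as percent growth averaged over up to triplicate wells. The values were rescaled so that 1 is full and 0 is none.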

SMILES	relative viability (0.00017 µM)	relative viability (0.00051 µM)	relative viability (0.00152 µM)	relative viability (0.00457 µM)	relative viability (0.01372 µM)	relative viability (0.04115 µM)	relative viability (0.1235 µM)	relative viability (0.3704 µM)	relative viability (1.111 µM)	relative viability (3.333 µM)	relative viability (10 µM)
CC(C)(C)c1cc(NC(=O)Nc2ccc(-c3cn4c(n3)sc3cc(OCCN5CCOCC5)ccc34)cc2)no1 [Quizartinib]	1.05 ± 0.035	1.08 ± 0.02	1.06 ± 0.032	1.08 ± 0.023	1.067 ± 0.0075	0.946 ± 0.039	0.752 ± 0.052	0.472 ± 0.011	0.42 ± 0.02	0.369 ± 0.032	0.396 ± 0.021
CNC(=O)c1ccc(-c2cnc3ncc(Cc4ccc5ncccc5c4)n3n2)cc1F [Capmatinib]	1.1 ± 0.029	1.07 ± 0.019	1.08 ± 0.04	1.08 ± 0.024	1.07 ± 0.038	1.06 ± 0.015	1.1 ± 0.02	1.07 ± 0.054	1.04 ± 0.027	0.984 ± 0.054	0.787 ± 0.035
CC(C)N1CCN(Cc2cnc(-c3cc(-c4cccc5[nH]ccc45)cc4[nH]ncc34)o2)CC1 [Nemiralisib]	0.981 ± 0.046	0.988 ± 0.022	0.998 ± 0.039	0.982 ± 0.015	0.97 ± 0.058	0.97 ± 0.017	0.956 ± 0.0079	0.897 ± 0.03	0.847 ± 0.053	0.631 ± 0.035	0.359 ± 0.021
C[C@@H](c1ccc2nccn2c1)n1nnc2ncc(-c3cnn(C)c3)nc21 [Volitinib]	1.05 ± 0.014	1.08 ± 0.046	1.1 ± 0.031	1.08 ± 0.038	1.08 ± 0.033	1.07 ± 0.026	1.06 ± 0.031	1.06 ± 0.044	1.05 ± 0.042	0.962 ± 0.038	0.842 ± 0.072
COc1c(OCCCN2CCOCC2)ccc2c1N=C(NC(=O)c1cnc(N)nc1)N1CCN=C21 [Copanlisib]	1.05 ± 0.035	1.01 ± 0.07	0.927 ± 0.023	0.711 ± 0.055	0.583 ± 0.037	0.481 ± 0.049	0.399 ± 0.05	0.316 ± 0.027	0.268 ± 0.018	0.235 ± 0.019	0.211 ± 0.038
CCN1CCN(Cc2ccc(Nc3ncc(F)c(-c4cc(F)c5nc(C)n(C(C)C)c5c4)n3)nc2)CC1 [Abemaciclib]	1.05 ± 0.033	1.04 ± 0.035	1.04 ± 0.017	1.03 ± 0.034	0.976 ± 0.015	0.876 ± 0.027	0.77 ± 0.08	0.564 ± 0.023	0.417 ± 0.024	0.383 ± 0.031	0.333 ± 0.029
C[C@]1(O)C[C@@H](c2nc(-c3ccc4ccc(-c5ccccc5)nc4c3)c3c(N)nccn32)C1 [Linsitinib]	1.08 ± 0.049	1.05 ± 0.058	1.05 ± 0.021	1.06 ± 0.05	1.03 ± 0.017	1.03 ± 0.048	1.04 ± 0.087	0.99 ± 0.077	0.907 ± 0.063	0.755 ± 0.097	0.476 ± 0.017
Cc1ccc(NC(=O)c2ccc(CN3CCN(C)CC3)cc2)cc1Nc1nc(-c2cccnc2)cs1 [Masitinib]	1.01 ± 0.019	1.03 ± 0.039	1.06 ± 0.013	1.05 ± 0.065	1.09 ± 0.03	0.976 ± 0.033	0.772 ± 0.012	0.472 ± 0.011	0.303 ± 0.015	0.194 ± 0.015	0.0391 ± 0.0062
CN1CCN(c2ccc3nc(-c4c(N)c5c(F)cccc5[nH]c4=O)[nH]c3c2)CC1 [Dovitinib]	1.1 ± 0.031	1.06 ± 0.031	1.06 ± 0.064	1.07 ± 0.046	1.01 ± 0.052	1.03 ± 0.056	0.907 ± 0.1	0.771 ± 0.029	0.355 ± 0.054	0.0814 ± 0.011	0.0143 ± 0.0029
CC(=O)Nc1cccc(-n2c(=O)n(C3CC3)c(=O)c3c(Nc4ccc(I)cc4F)n(C)c(=O)c(C)c32)c1 [Trametinib]	1.08 ± 0.084	1.08 ± 0.05	1.09 ± 0.034	1.08 ± 0.035	1.04 ± 0.047	0.977 ± 0.06	0.77 ± 0.071	0.576 ± 0.024	0.544 ± 0.022	0.536 ± 0.0082	0.491 ± 0.015
C=CC(=O)N1CCC[C@@H](n2nc(-c3ccc(Oc4ccccc4)cc3)c3c(N)ncnc32)C1 [Ibrutinib]	1.03 ± 0.019	1.06 ± 0.11	1.04 ± 0.057	1.07 ± 0.059	1.05 ± 0.048	1.09 ± 0.034	1.07 ± 0.095	1.07 ± 0.026	1.008 ± 0.0098	0.939 ± 0.13	0.525 ± 0.026
COc1cc2/c(=N/c3ccc(Br)cc3F)nc[nH]c2cc1OCC1CCN(C)CC1 [Vandetanib]	1.04 ± 0.076	1.02 ± 0.018	1.02 ± 0.049	1.03 ± 0.067	1.04 ± 0.046	1 ± 0.067	0.981 ± 0.057	0.93 ± 0.07	0.706 ± 0.039	0.348 ± 0.073	0.0148 ± 0.0046
C[C@@H]1COCCN1c1cc(-c2ccnn2C)c2ccnc(-c3ccn[nH]3)c2n1	1.07 ± 0.068	1.05 ± 0.039	1.07 ± 0.067	1.08 ± 0.061	1.03 ± 0.037	0.903 ± 0.019	0.668 ± 0.05	0.431 ± 0.04	0.291 ± 0.015	0.231 ± 0.0066	0.222 ± 0.0062
COc1cccc2c1C(=O)c1c(O)c3c(c(O)c1C2=O)C[C@@](O)(C(=O)CO)C[C@@H]3O[C@H]1C[C@H](N)[C@H](O)[C@H](C)O1 [Doxorubicin Hydrochloride]	1.06 ± 0.015	1.07 ± 0.06	1.04 ± 0.006	0.941 ± 0.031	0.779 ± 0.1	0.56 ± 0.068	0.314 ± 0.032	0.137 ± 0.024	0.128 ± 0.0019	0.123 ± 0.014	0.118 ± 0.019
O=C(Nc1cnn2ccc(N3CCC[C@@H]3c3cc(F)ccc3F)nc12)N1CC[C@H](O)C1 [Larotrectinib]	1.11 ± 0.015	1.1 ± 0.029	1.11 ± 0.037	1.06 ± 0.043	1.11 ± 0.039	1.08 ± 0.02	1.09 ± 0.046	1.11 ± 0.04	1.06 ± 0.057	1.115 ± 0.011	1.09 ± 0.016
Cc1cc(C)c(/C=C2\C(=O)Nc3ccccc32)[nH]1 [Semaxanib]	1.02 ± 0.067	1.03 ± 0.021	0.964 ± 0.055	0.966 ± 0.067	0.977 ± 0.052	0.925 ± 0.075	0.883 ± 0.015	0.852 ± 0.032	0.823 ± 0.041	0.568 ± 0.043	0.33 ± 0.032
CC1(C)CNc2cc(NC(=O)c3cccnc3NCc3ccncc3)ccc21 [Motesanib]	0.977 ± 0.038	1.01 ± 0.046	1.01 ± 0.037	0.995 ± 0.015	0.968 ± 0.025	0.895 ± 0.045	0.76 ± 0.059	0.524 ± 0.017	0.393 ± 0.0075	0.3783 ± 0.0025	0.312 ± 0.012
Cc1nc(-c2cn3c(n2)-c2ccc(-c4cnn(C(C)(C)C(N)=O)c4)cc2OCC3)n(C(C)C)n1 [Taselisib]	1.05 ± 0.1	1.03 ± 0.086	0.993 ± 0.039	0.924 ± 0.061	0.852 ± 0.085	0.742 ± 0.041	0.609 ± 0.021	0.538 ± 0.028	0.435 ± 0.019	0.354 ± 0.038	0.29 ± 0.02
CC(C)NC(=O)C1CCC(n2c(NC(=O)c3ccc(F)cc3)nc3ccc(CN4CCC(C(C)(C)O)CC4)cc32)CC1 (centres undefined) [Belizatinib]	1.1 ± 0.019	1.11 ± 0.056	1.11 ± 0.034	1.08 ± 0.02	1.092 ± 0.0066	1.09 ± 0.044	1.08 ± 0.026	1.05 ± 0.029	0.984 ± 0.086	0.727 ± 0.019	0.361 ± 0.069

— the supplement of paper PMC10883282
